This is an account of results in US20070037833A1, “Compositions and methods for inhibiting neurodegeneration” (priority 2005, published 2007).

Where “and” joins values, the source holds several entries; their conditions need not be identical. Equal values may be shown once. Entries after “also recorded” stand apart in the source; their conditions may differ.

Data set [1] has as its system motor neurons in embryonic rat spinal cord cultures. Nature of the data set: Excitotoxicity assay (100 μM kainic acid) in mixed spinal cord cultures. Type of data set: cell-based. The conditions noted are these: for excitotoxic motor neuron death: drug for 4 days (added 4 and 2 days) prior to 100 μM kainic acid 1 h, SMI-32(+) motor neurons counted 24 h later; for % of motor neurons killed (cell death) after excitotoxic insult: 4 day pre-treatment prior to 100 μM kainic acid. The method, then:
Unless otherwise specified, BDNF was added to all cultures.
Many previous in vitro investigations have identified motor neurons in mixed spinal cord cell culture by immunostaining for non-phosphorylated neurofilaments (or peripherin) and restricting analysis to cells with a soma diameter of 25 μm or greater (Carriedo et al., 2000; Hu and Kalb, 2003). We wanted to confirm the validity of this approach using an independent method for determining whether a given cell is a motor neuron. To specifically identify motor neurons in our cultures we purified these cells by metrizamide gradient and immunopanning techniques (Henderson et al., 1993; Fryer et al., 1999), live-labeled them with CM-DiI, and added these fluorescently-tagged, bona fide motor neurons to mixed cell cultures at the time of initial plating. All CM-DiI labeled cells stained for motor neurons markers such as non-phosphorylated neurofilament H (using antibody, SMI-32), peripherin, choline acetyl transferase (ChAT) and islet ½ (FIG. 1, panel a.). We then subjected spinal cord cultures to an excitotoxic insult and determined motor neuron survival using multiple methods for identifying motor neurons. […] Since all SMI-32 (+) cells with cell body diameter of 25 μm or greater were CM-DiI (+) and all CM-DiI (+) cells were SMI-32 (+), for the remainder of the studies herein, we could confidently study motor neuron death in vitro by counting SMI-32 (+) cells with a cell body diameter of 25 μm or greater.

The subject of data set [2] is motor neurons expressing G85R SOD. Nature of the data set: Motor neuron death from HSV-expressed mutant SOD in spinal cord cultures. It is filed as cell-based, rat. The conditions noted are these: 6 days post-infection; treatment daily or every other day. The text has this:
(§1) Various cDNAs were cloned into the PrpUC amplicon plasmid and were used to generate recombinant HSV as previously described (Neve et al., 1997). The titer of viruses used in these studies were routinely 3-5×10^7 plaque-forming units/ml. The cDNA for wild type/mutant SOD and wild type/mutant p150^glued were gifts of D. Borchelt and E. Holzbaur, respectively. The K295R mutant version of chick src was a gift of J. Brugge.
(§2) Mutations in superoxide dismutase (SOD) or the p150^glued subunit of dynactin are known to account for a familial form of ALS in a subpopulation of individuals (Rosen, 1993; Puls et al., 2003; Bruijn et al., 2004). We inquired whether expression the mutant forms of SOD or p150^glued caused motor neuron death in vitro and if Trk antagonism was neuroprotective. Recombinant herpes simplex viruses (HSVs) were generated that expressed wild type or mutant form of SOD (G85R) and wild type or mutant p150^glued (G59S). […] Spinal cord cultures were infected with virus at 14 DIV and the number of motor neurons was determined 2, 4, 6 or 8 days later (FIG. 4, panel a.).
(§3) We next determined if KW6002 could protect motor neurons from the toxic effects of mutant proteins. Spinal cord cultures were infected with viruses expressing wild type or mutant versions of SOD or p150^glued at 14 DIV, then treated with drug or vehicle for 4 days (FIG. 4, panel b.). […]

Data set [3] has as its system motor neurons expressing G59S p150^glued. Nature of the data set: Motor neuron death from HSV-expressed mutant p150glued in spinal cord cultures. It is filed as cell-based, rat. As to conditions: 6 days post-infection; treatment daily or every other day.
From the text: as §1, §2, §3

Data set [4] relates to motor neurons in embryonic rat spinal cord cultures. The conditions noted are these: Mojsilovic-Petrovic et al., 2005; cited from earlier work.
In a further data set the test system is Trk. Nature of the data set: Immunoblot for phosphoTrk in spinal cord cultures. It is filed as cell-based, rat. The conditions noted are these: 24 hours treatment. The method, then: (§4) Cells were lysed in 1% NP-40 lysis buffers containing protease inhibitors, subjected to SDS-PAGE and immunoblotted as previously described (Fryer et al., 1999; Fryer et al., 2000). For immunoprecipitation, lysates from 60 mm dishes were pre-cleared by incubation with protein A beads (Santa Cruz), incubated with primary antibody (4 μg/ml)×2 hours then 50 μL of beads added and incubated overnight with gentle agitation at 4° C. Beads were pelleted, washed 5× with 10 mM Tris pH 7.4+0.5 mM EGTA+0.5 mM EDTA+0.1% NP40 before elution in 1× Laemelli sample buffer. Antibody sources: BD Transduction Labs—TrkB and MAP Kinase used at 1:500, Cell Signaling—Akt 1:1000; phosphoTrk (tyr490) 1:1000; phospho p42/44 MAP Kinase (thr 202/tyr204) 1:1000; phosphoAkt (ser473) 1:500; IGFI antibody (tyr 1131) 1:500. Upstate—adenosine A2a 1:1000. Sigma—actin 1:200. Biosource—active src (clone 28) 1:200.
(§5) We next asked about the effect of the adenosine A2 receptor antagonism on Trk signaling. Cultures of spinal cord cells (grown in the presence of a cocktail of trophic factors including 10 ng/ml BDNF) received KW6002 (1 μM), MRS1754 (50 nM) or vehicle (DMSO 0.1%) and 24 hrs. later, lysates were prepared for immunoblots for Trk and the MAP kinase downstream signaling module (FIG. 2, panel a). Immunoblots for phosphoTrk and phosphoMAPK were employed to monitor the state of activation of these proteins.
(§6) We followed up these observations by determining the effect of enprofylline on Trk signaling and determined the extent to which the resultant biochemical changes mimic the effects of direct pharmacological Trk antagonism with CEP4416. […] The effect of drug treatment on AKT was particularly marked. […] To determine the specificity of these agents, we examined their effect on Insulin-like growth factor 1 (IGF1) signaling through the IGF receptor tyrosine kinase (IGFR). […] It is unlikely that phosphodiesterase activity of enprofylline can explain these observations as increased cAMP levels enhance, not suppress, TrkB activation (Boulanger and Poo, 1999; Ji et al., 2005).
(In general: In western blotting, separated proteins are transferred to a membrane and probed.)

The test system of another data set is MAP kinase. Nature of the data set: Immunoblot for phosphoMAPK in spinal cord cultures. Type of data set: cell-based, rat. The conditions noted are these: 24 hours treatment. The method, then: as §4, §5, §6
Another data set deals with src-family kinases (SFK). Nature of the data set: Immunoblot for active SFKs (clone 28 antibody) in spinal cord cultures. It is filed as cell-based, rat. As to conditions: 24 hours treatment; listed as MRS 1754. Here is the method: as §4
The precise mechanism by which G-protein coupled receptors trans-activate receptor tyrosine kinases is complex and to some extent receptor-subtype specific (Luttrell et al., 1999; Downward, 2003; Piiper and Zeuzem, 2004; Waters et al., 2004). […] If this pathway was operative in spinal cord neurons, then antagonism of adenosine A2a receptors might lead to reduced src activation and antagonism of SFKs might be neuro-protective. Src is negatively regulated by phosphorylation of tyrosine 529 (refers to human src sequence) and an antibody that recognizes a de-phospho epitope in this region (“clone 28”) is a reliable measure of active src and SFKs (Kawakatsu et al., 1996). We began by asking for adenosine A2a receptors and active SFKs are present in the same cells and if so, their subcellular distribution. Pure motor neurons, grown in the presence of BDNF were immunostained with a rabbit anti-adenosine A2a receptor and the clone 28 antibody. One hundred percent of motor neurons expressed both antigens and on dendrites, the immunoreactivity formed discrete fine puncta (FIG. 5a). Many, but not all, puncta were stained with both antibodies. […]

For data set [5], the system named is IGF receptor tyrosine kinase (IGFR). Nature of the data set: Immunoblot for phospho-IGFR in spinal cord cultures. As to conditions: 5 nM, 30 min. Type of data set: cell-based, rat. Here is the method: as §4, §6

Take `C[C@]12O[C@H](C[C@]1(O)CO)n1c3ccccc3c3c4c(c5c6ccccc6n2c5c31)CNC4=O` [CEP701]: the “excitotoxic motor neuron death” value in data set [1] is recorded as “No motor neuron death occurred”; in data set [1] (listed as CEP-701) it was “completely blocked the loss of SMI(+) neurons”.

In the case of `N#Cc1cc2[nH]c(=O)c(=O)[nH]c2cc1[N+](=O)[O-]` [CNQX], the “motor neuron survival / toxicity of G85R SOD” value in data set [2] is reported as “significantly greater number of motor neurons; also recorded: completely prevented the toxicity of mutant protein expression”. In data set [3], the “motor neuron survival / toxicity of G59S p150glued” value is recorded as “significantly greater number of motor neurons; also recorded: completely prevented the toxicity of mutant protein expression”.

With `CCCn1c(=O)c2[nH]c(C3CCCC3)nc2n(CCC)c1=O` [DPCPX], the “excitotoxic cell death in pre-treated cultures (previous observations)” value in data set [4] is recorded as “death occurred”.

For `O=S(=O)(NCCNC/C=C/c1ccc(Br)cc1)c1cccc2cnccc12` [H89], the “% of motor neurons killed (cell death) after excitotoxic insult” value (from here on “% of motor neurons killed (cell death)”) in data set [1] was 40% and 53±5%.

On to `CCCn1c(=O)c2[nH]c(-c3ccc(OCC(=O)Nc4ccc(C#N)cc4)cc3)nc2n(CCC)c1=O` [MRS1754], for which the entries for the “% of motor neurons killed (cell death)” value in data set [1] and in data set [1] (listed as MRS 1754) were 50% and about 40%, respectively. Also, in the data set with Trk, the “abundance of phosphoTrk” value is listed as “indistinguishable from the vehicle control”. Moreover, the “abundance of phosphoMAPK” value in the data set with MAP kinase was “indistinguishable from the vehicle control”. Also, the “abundance of active SFKs” value in the data set with src-family kinases (SFK) is on record as “only reduced in cultures treated with KW6002”.

`Cc1ccc(-c2nn(C(C)(C)C)c3ncnc(N)c23)cc1` [PP1]: the “% motor neuron survival after excitotoxic challenge” value in data set [1] (SFK inhibition before excitotoxicity assay) was found to be 100±2%. Besides, in data set [1] (SFK inhibition, versus LacZ or vehicle), the “number of motor neurons surviving excitotoxic challenge” value was “statistically significant greater number of motor neurons”. In addition, the “abundance of phosphoTrk” value with Trk is reported as “reduction in the abundance of phosphorylated Trk; also recorded: reduction in the abundance of phosphoTrk”.

For `Nc1ncnc2c1ncn2C1CCCO1` (stereo not drawn) [SQ 22536], the “% of motor neurons killed (cell death)” value in data set [1] is 40% and 42±4%. For the same compound, the “basal survival of motor neurons” value in data set [1] (4 day pre-treatment, without excitotoxic challenge) is “did not adversely affect the basal survival of motor neurons”.

Take `Nc1nc(NCCc2ccc(O)cc2)nc2nc(-c3ccco3)nn12` [ZM241385]: the “excitotoxic cell death in pre-treated cultures (previous observations)” value in data set [4] is listed as “no excitotoxic cell death”.

Turning to `CCCC(=O)Nc1ncnc2c1ncn2[C@@H]1O[C@@H]2COP(=O)(O)O[C@H]2[C@H]1OC(=O)CCC` [db-cAMP, dibutryl-cAMP], in data set [1], the “% of motor neurons killed (cell death)” value is recorded as −2±3% and the “excitotoxic motor neuron death” value is given as “No excitotoxic cell death occured”.

For `C=C(C)[C@H]1CN[C@H](C(=O)O)[C@H]1CC(=O)O` [kainic acid], the “loss of motor neurons” value in data set [1] (100 μM for 1 hour, counted 24 hours later, 14-16 DIV) was about 45%.

For the compound IGF1: Insulin-like growth factor 1, in data set [5], the “IGFR phosphorylation upon acute administration” value is listed as “robust induction of phospho-IGFR; also recorded: strong increase in IGFR phosphorylation”.
